Active and inactive are the calls of the source. How the calls were made is not given here.
Test system: CCRIS mutagenicity, Ames/micronucleus/aberration tests
Test: CCRIS mutagenicity studies
Details: Method: PREINCUBATION
[1] = Test System: AMES SALMONELLA TYPHIMURIUM, Strain/Indicator: TA98, Metabolic Activation: NONE
[2] = Test System: AMES SALMONELLA TYPHIMURIUM, Strain/Indicator: TA100, Metabolic Activation: NONE
[3] = Test System: AMES SALMONELLA TYPHIMURIUM, Strain/Indicator: TA1535, Metabolic Activation: NONE
[4] = Test System: AMES SALMONELLA TYPHIMURIUM, Strain/Indicator: TA1537, Metabolic Activation: NONE

Measured: mutagenic call

C=CCOC(=O)C=C
inactive: Test System: AMES SALMONELLA TYPHIMURIUM, Strain/Indicator: TA97, Metabolic Activation: HAMSTER, LIVER, S-9, AROCLOR 1254 (10 OR 30%) inactive; negative | Test System: AMES SALMONELLA TYPHIMURIUM, Strain/Indicator: TA97, Metabolic Activation: NONE inactive; negative | Test System: AMES SALMONELLA TYPHIMURIUM, Strain/Indicator: TA97, Metabolic Activation: RAT, LIVER, S-9, AROCLOR 1254 (10 OR 30%) inactive; negative | Test System: AMES SALMONELLA TYPHIMURIUM, Strain/Indicator: TA98, Metabolic Activation: HAMSTER, LIVER, S-9, AROCLOR 1254 (10%) inactive; negative | Test System: AMES SALMONELLA TYPHIMURIUM, Strain/Indicator: TA98, Metabolic Activation: HAMSTER, LIVER, S-9, AROCLOR 1254 (30%) inactive; negative | [1] inactive; negative | Test System: AMES SALMONELLA TYPHIMURIUM, Strain/Indicator: TA98, Metabolic Activation: RAT, LIVER, S-9, AROCLOR 1254 (10%) inactive; negative | Test System: AMES SALMONELLA TYPHIMURIUM, Strain/Indicator: TA98, Metabolic Activation: RAT, LIVER, S-9, AROCLOR 1254 (30%) inactive; negative | Test System: AMES SALMONELLA TYPHIMURIUM, Strain/Indicator: TA100, Metabolic Activation: HAMSTER, LIVER, S-9, AROCLOR 1254 (10%) inactive; negative | Test System: AMES SALMONELLA TYPHIMURIUM, Strain/Indicator: TA100, Metabolic Activation: HAMSTER, LIVER, S-9, AROCLOR 1254 (30%) inactive; negative | [2] inactive; negative | Test System: AMES SALMONELLA TYPHIMURIUM, Strain/Indicator: TA100, Metabolic Activation: RAT, LIVER, S-9, AROCLOR 1254 (10%) inactive; negative | Test System: AMES SALMONELLA TYPHIMURIUM, Strain/Indicator: TA100, Metabolic Activation: RAT, LIVER, S-9, AROCLOR 1254 (30%) inactive; negative | Test System: AMES SALMONELLA TYPHIMURIUM, Strain/Indicator: TA1535, Metabolic Activation: HAMSTER, LIVER, S-9, AROCLOR 1254 (10%) inactive; negative | Test System: AMES SALMONELLA TYPHIMURIUM, Strain/Indicator: TA1535, Metabolic Activation: HAMSTER, LIVER, S-9, AROCLOR 1254 (30%) inactive; negative | [3] inactive; negative | Test System: AMES SALMONELLA TYPHIMURIUM, Strain/Indicator: TA1535, Metabolic Activation: RAT, LIVER, S-9, AROCLOR 1254 (10%) inactive; negative | Test System: AMES SALMONELLA TYPHIMURIUM, Strain/Indicator: TA1535, Metabolic Activation: RAT, LIVER, S-9, AROCLOR 1254 (30%) inactive; negative | Test System: AMES SALMONELLA TYPHIMURIUM, Strain/Indicator: TA1537, Metabolic Activation: HAMSTER, LIVER, S-9, AROCLOR 1254 (10%) inactive; negative | [4] inactive; negative | Test System: AMES SALMONELLA TYPHIMURIUM, Strain/Indicator: TA1537, Metabolic Activation: RAT, LIVER, S-9, AROCLOR 1254 (10%) inactive; negative

CCNCCN
inactive: [1] inactive; negative | Test System: AMES SALMONELLA TYPHIMURIUM, Strain/Indicator: TA98, Metabolic Activation: RAT LIVER S-9, PHENOBARBITAL AND BETA-NAPHTHOFLAVONE inactive; negative | [2] inactive; negative | Test System: AMES SALMONELLA TYPHIMURIUM, Strain/Indicator: TA100, Metabolic Activation: RAT LIVER S-9, PHENOBARBITAL AND BETA-NAPHTHOFLAVONE inactive; negative | [3] inactive; negative | Test System: AMES SALMONELLA TYPHIMURIUM, Strain/Indicator: TA1535, Metabolic Activation: RAT LIVER S-9, PHENOBARBITAL AND BETA-NAPHTHOFLAVONE inactive; negative | [4] inactive; negative | Test System: AMES SALMONELLA TYPHIMURIUM, Strain/Indicator: TA1537, Metabolic Activation: RAT LIVER S-9, PHENOBARBITAL AND BETA-NAPHTHOFLAVONE inactive; negative | Test System: AMES SALMONELLA TYPHIMURIUM, Strain/Indicator: TA1538, Metabolic Activation: NONE inactive; negative | Test System: AMES SALMONELLA TYPHIMURIUM, Strain/Indicator: TA1538, Metabolic Activation: RAT LIVER S-9, PHENOBARBITAL AND BETA-NAPHTHOFLAVONE inactive; negative | Test System: E.COLI, Strain/Indicator: WP2UVRA, Metabolic Activation: NONE inactive; negative | Test System: E.COLI, Strain/Indicator: WP2UVRA, Metabolic Activation: RAT LIVER S-9, PHENOBARBITAL AND BETA-NAPHTHOFLAVONE inactive; negative
